From patent US20080044390A1, “Methods and compositions for the treatment of neurodegenerative disorders” (priority 2006, published 2008)
Like-named read-outs stand apart in the source and are kept apart here. *1 amine or outer side, *2 acyl side, *3 side chain or, on linkers, in order; H or OH if unused. Where a SMILES comes first, the peptide text is derived from it. [ ]: non-standard residue; d: D form. The star is where a group is joined. hPhe = N[CH](CCc1ccccc1)C(=O)O; Morpholide = C1CN(*)CCO1; CO = O=C([*:1])[*:2]; CH2F = FC*

Key:
[1] = system: PC12/HttN90Q103 cells; assay: ATPlite assay, rescue of HttN90Q103-induced cell death; assay type: cell-based, rat
Excerpt: (§1) In this stable PC12 line (PC12/HttN90Q103), transcription of the Htt transgene is driven by an ecdysone-regulated promoter such that the expression of HttN90Q103 can be turned on or off by the addition or removal of the non-steroidal ecdysone analog tebufenozide (teb).
(§2) Using the engineered PC12/HttN90Q103 cell line together with Perkin Elmer's ATPlite™ assay kit or CellTiter-Blue™ assay, a high throughput assay to screen small molecules for their ability to prevent mutant Htt exon 1-induced cell death was developed and optimized.
(§3) The following formulas were used to calculate mutant Htt-induced cytotoxicity and test compound rescue: % killing=[(un-induced−induced-DMSO treated)/un-induced]×100 % rescue=[(drug treated−induced-DMSO treated)/(un-induced−induced-DMSO treated)]×100
For single-agent ranking, the assay was performed in 384-well plates to obtain duplicate dose response curves in 12-step dilutions with a dosing ratio f=2 over 3 orders of magnitude. […]
(§4) Day 1—Add Compounds 4 hours post-induction • 1) Remove compound plates from dessicator. • 2) Using the PlateMate, prepare dilution plate with 100 μL per well of the complete cell medium at room temperature in clear untreated 384-well plates. • 3) Using the MiniTrak, make compound dilution plates: 1 μL from each well of stock plates into 100 μL of media in the dilution plate for a 1:100 dilution (10× stock in media). • 4) Using the MiniTrak, add 4.5 μL of the diluted stock to each well of cells in assay plates. • 5) Make positive control solution: dilute 20 mM stock of BOC-D-FMK in media for a 10× stock. • 6) Manually add 4.5 μL positive control to C1-N1. • 7) Incubate plates at 37° C. for three days. • (for ranking combinations, steps 5 and 6 are omitted as there is positive control on the compound plates)
Day 4—Perform ATPlite™ Assay • 1) Take plates out of the incubator. • 2) Using the PlateMate, add 40 μL of ATPlite™ 1-step solution (Perkin Elmer) to each well of the assay plates. • 3) Wait ten minutes to allow plates to dark-adapt. • 4) Read luminescence intensity in Wallac plate reader using […]

[2] = system: PC12/HttN90Q103 cells; assay: CellTiter-Blue assay, rescue of HttN90Q103-induced cell death; assay type: cell-based, rat; conditions: CellTiter-Blue, single agent
Excerpt: as §1, §2, §3
For single-agent ranking, the assay was performed in 384-well plates to obtain duplicate dose response curves in 12-step dilutions with a dosing ratio f=2 over 3 orders of magnitude.
The uncertainty of each fitted parameter was estimated from the range over which the change in reduced chi-squared was less than one, or less than minimum reduced chi-squared if that minimum exceeded one, to allow for underestimated σI errors.
as §4
Day 4—CellTiter-Blue™ assay • 1) Make solution of 5% CellTiter-Blue™ in Q103 media. • 2) Using the Multidrop, add 40 μL of 5% CellTiter-Blue™ solution to each well of the assay plates. • 3) Incubate plates with CellTiter-Blue™ at 37° C.

[3] = ATPlite, single agent, 250 nM tebufenozide induction
[4] = ATPlite, single agent, sigmoidal fit of 12-step dose response, read-out: EC50
[5] = Rattus norvegicus, PC-12, ATPlite, single agent, 250 nM tebufenozide induction, read-out: Max Effect (% rescue)
[6] = Rattus norvegicus, PC-12, ATPlite, single agent, sigmoidal fit of 12-step dose response, read-out: EC50
[7] = Rattus norvegicus, PC-12, read-out: Max Effect (% rescue)

Molecule	Emax [1, 5]	EC50 [1, 6]	further results
N[C@@H]1C[C@H]1c1ccccc1 (racemic) [Tranylcypromine]	–	–	Max Effect (% rescue) [1, 3]: 16%; EC50 [1, 4]: 2.2 µM
CC1CNCCN1S(=O)(=O)c1cccc2cnccc12 (centres unmarked) [1-(5-isoquinolinesulfonyl)-2-methylpiperazine]	28%	15.5 µM	–
OC[C@H]1O[C@@H](n2cnc3cc(Cl)c(Cl)cc32)[C@H](O)[C@@H]1O [5,6-dichloro-1-β-D-ribofuranosylbenzimidazole]	–	–	EC50 ([1]; Rattus norvegicus, PC-12): 5.1 µM; Emax [1, 7]: 26%
CN1c2c(nc(N)[nH]c2=O)NCC1CNc1ccc(C(=O)N[C@@H](CCC(=O)O)C(=O)O)cc1 (some centres unmarked) [5-methyl-5-6-7-8-tetrahydropteroylglutamic-acid]	–	–	Max Effect (% rescue) ([2]; 250 nM tebufenozide induction): 34%; EC50 ([2]; sigmoidal fit of 12-step dose response, read-out: EC50): 9.3 µM
Nc1ncnc2c1c(I)cn2[C@@H]1C[C@H](N)[C@@H](O)[C@H]1O [Agent A-134974, N^7-[(1′R,2′S,3′R,4′S)-2′,3′-dihydroxy-4′-aminocyclopentyl]-4-amino-5-iodopyrrolopyrimidine]	–	–	Max Effect (% rescue) [1, 3]: 22%; EC50 [1, 4]: 13.3 µM
O=C1Cc2c([nH]c3ccc([N+](=O)[O-])cc23)-c2ccccc2N1 [Alsterpaullone]	64%	1.8 µM	–
CC(C)c1ccc2oc3nc(N)c(C(=O)O)cc3c(=O)c2c1 [Amlexanox]	–	–	EC50 ([1]; Rattus norvegicus, PC-12): 5.7 µM; Emax [1, 7]: 18%
CCN(CC)Cc1cc(Nc2ccnc3cc(Cl)ccc23)ccc1O [Amodiaquine]	62%	12.3 µM	–
C[C@]12CCC(=O)C[C@@H]1CC[C@@H]1[C@@H]2CC[C@]2(C)[C@@H](O)CC[C@@H]12 [Androstanolone]	–	–	EC50 ([1]; Rattus norvegicus, PC-12): 8 µM; Emax [1, 7]: 15%
O=C(CF)C(CCc1ccccc1)NC(=O)C(Cc1ccccc1)NC(=O)N1CCOCC1 (centres unmarked) [BML-248, N-morpholineurea-phenylalanyl-homophenylalanylfluoromethyl ketone] ({Morpholide-CO}-Phe-[hPhe]-CH2F; configuration not given here)	–	–	Max Effect (% rescue) [1, 3]: 24%; EC50 [1, 4]: 7.1 µM
O=C(NO)c1ccccc1 [Benzohydroxamic acid]	15%	6.9 µM	–
CCCC(=O)Nc1ncnc2c1ncn2[C@@H]1O[C@@H]2COP(=O)(O)O[C@H]2[C@H]1OC(=O)CCC [Bucladesine]	18%	19.6 µM	–
COC(=O)CC(NC(=O)OC(C)(C)C)C(=O)CF [Caspase inhibitor III (BOC-D-fmk)]	–	–	% rescue ([1]; 20 μM, positive control, 72 hours following tebufenozide induction): More than 50%; Max Effect (% rescue) [1, 3]: 119%; EC50 [1, 4]: 3.9 µM
CC1=C(O)C(=O)C=C2C1=CC=C1[C@@]2(C)CC[C@@]2(C)[C@@H]3C[C@](C)(C(=O)O)CC[C@]3(C)CC[C@]12C [Celastrol]	–	–	EC50 ([1]; Rattus norvegicus, PC-12): 0.3 µM; Emax [1, 7]: 19%
CCN(CC)CCCC(C)Nc1ccnc2cc(Cl)ccc12 (centres unmarked) [Chloroquine]	–	–	EC50 ([1]; Rattus norvegicus, PC-12): 9.7 µM
N=C(N)c1ccc(/N=N/Nc2ccc(C(=N)N)cc2)cc1 [Diminazene]	35%	5.6 µM	–
CCCC(CCC)C(=O)O [Divalproex]	19%	15.2 µM	–
O=S(=O)(c1cccc2cnccc12)N1CCCNCC1 [Fasudil]	26%	9.9 µM	–
O=c1c(O)c(-c2ccc(O)c(O)c2)oc2cc(O)ccc12 [Fisetin]	52%	12.4 µM	–
C=C[C@@]1(C)CC(=O)[C@]2(O)[C@@]3(C)[C@@H](O)CCC(C)(C)[C@@H]3[C@H](O)[C@H](OC(C)=O)[C@@]2(C)O1 [Forskolin]	18%	0.2 µM	–
CCN(CCO)CCCC(C)Nc1ccnc2cc(Cl)ccc12 (centres unmarked) [Hydroxychloroquine]	29%	5.2 µM	–
NC(=O)NO [Hydroxyurea]	22%	7.5 µM	–
O=C(Nc1cccc(C2=NCCN2)c1)Nc1cccc(C2=NCCN2)c1 [Imidocarb]	24%	15.9 µM	–
O=C1Nc2ccccc2/C1=C1/Nc2ccccc2/C1=N\O [Indirubin-3′-monooxime]	–	–	Max Effect (% rescue) [1, 3]: 30%; EC50 [1, 4]: 2.4 µM

Molecule	Emax [1, 5]	EC50 [1, 6]	further results
O=C(/C=C/c1ccc(O)cc1)c1ccc(O)cc1O [Isoliquiritigenin]	27%	12.5 µM	–
O=c1c(O)c(-c2ccc(O)cc2)oc2cc(O)cc(O)c12 [Kaempferol]	15%	12.2 µM	–
O=C1Cc2c([nH]c3ccc(Br)cc23)-c2ccccc2N1 [Kenpaullone]	87%	4.7 µM	–
CC(C=NNC(=N)N)=NNC(=N)N [Methylglyoxal bis(guanylhydrazone)]	79%	7.7 µM	–
CCCCC1C(=O)NN(c2ccccc2)C1=O (centres unmarked) [Mofebutazone]	19%	5.6 µM	–
CC[C@@H](C(=O)O)[C@@H]1O[C@@H]([C@@H](C)[C@H](O)[C@H](C)C(=O)[C@H](CC)[C@H]2O[C@]3(C=C[C@@H](O)[C@]4(CC[C@@](C)([C@H]5CC[C@](O)(CC)[C@H](C)O5)O4)O3)[C@H](C)C[C@@H]2C)[C@@H](C)C[C@@H]1C [Narasin]	15%	0.1 µM	–
CO[C@@H]1C[C@@H](C[C@H]2CC[C@H](C)[C@H]([C@@H](C)C(=O)O)O2)O[C@]2(O[C@](C)([C@H]3CC[C@@](C)([C@@H]4O[C@@H]([C@H]5O[C@@](O)(CO)[C@H](C)C[C@@H]5C)C[C@@H]4C)O3)C[C@H]2C)[C@@H]1C [Nigericin]	36%	–	–
O=C1Nc2ccc3ncsc3c2/C1=C/c1cnc[nH]1 [PKR inhibitor]	–	–	Max Effect (% rescue) [1, 3]: 124%; EC50 [1, 4]: 1.2 µM
Cc1ncc(CSSCc2cnc(C)c(O)c2CO)c(CO)c1O [Pyritinol]	17%	15.1 µM	–
CC(=O)C(=O)O [Pyruvate]	5%	1.2 µM	–
CC(C)[C@H](NC(=O)c1ccc2ccccc2n1)C(=O)N[C@@H](CC(=O)O)C(=O)COc1c(F)cccc1F [Q-VD-OPH]	–	–	Max Effect (% rescue) [1, 3]: 72%; EC50 [1, 4]: 0.6 µM
O=c1c(O)c(-c2ccc(O)c(O)c2)oc2cc(O)cc(O)c12 [Quercetin]	23%	16.4 µM	–
CN(CCOc1ccc(CC2SC(=O)NC2=O)cc1)c1ccccn1 (centres unmarked) [Rosiglitazone]	13%	8.5 µM	–
COc1ccc2c(c1)/C(=C/c1cnc[nH]1)C(=O)N2 [SU9516, 3-[1-(3H-imidazol-4-yl)-meth-(Z)-ylidene]-5-methoxy-1,3-dihydro-indol-2-one]	66%	3.3 µM	–
CC[C@@H](C(=O)[C@@H](C)[C@@H](O)[C@H](C)[C@@H]1O[C@@H]([C@@H](CC)C(=O)O)CC[C@@H]1C)[C@H]1O[C@]2(C=C[C@@H](O)[C@]3(CC[C@@](C)([C@H]4CC[C@](O)(CC)[C@H](C)O4)O3)O2)[C@H](C)C[C@@H]1C [Salinomycin]	–	–	EC50 ([1]; Rattus norvegicus, PC-12): 0.2 µM; Emax [1, 7]: 24%
CC(=O)S[C@@H]1CC2=CC(=O)CC[C@]2(C)[C@H]2CC[C@@]3(C)[C@@H](CC[C@@]34CCC(=O)O4)[C@H]12 [Spironolactone]	22%	9.1 µM	–
c1ccc(CN(CCN(Cc2ccccn2)Cc2ccccn2)Cc2ccccn2)nc1 [TPEN, N,N,N′,N′-tetrakis(2-pyridylmethyl)-ethylenediamine]	15%	3 µM	–
Nc1c2c(nc3ccccc13)CCCC2 [Tacrine]	15%	39.6 µM	–
NC1CCN(c2nc3c(cc2F)c(=O)c(C(=O)O)cn3-c2ccc(F)cc2F)C1 (centres unmarked) [Tosufloxacin]	20%	9.9 µM	–
N#C/C(=C\c1ccc(O)c(O)c1)C(N)=O [Tyrphostin 46]	–	–	Max Effect (% rescue) [1, 3]: 23%; EC50 [1, 4]: 23.5 µM
CC(=O)ON=C1C(=O)N(Cc2cc(Cl)ccc2Cl)c2ccc(Cl)cc21 [UCH-L1 inhibitor]	–	–	Max Effect (% rescue) [1, 3]: 21%; EC50 [1, 4]: 0.5 µM
O=S(=O)([O-])[O-].[O]=[V+2] [Vanadyl]	–	–	Max Effect (% rescue) [1, 3]: 19%; EC50 [1, 4]: 0.6 µM
CN1CCN(C(=O)OC2c3nccnc3C(=O)N2c2ccc(Cl)cn2)CC1 (centres unmarked) [Zopiclone]	–	–	EC50 ([1]; Rattus norvegicus, PC-12): 6.7 µM; Emax [1, 7]: 25%
Maduramicin NH4	–	–	Max Effect (% rescue) [1, 3]: 19%; EC50 [1, 4]: 0.04 µM
